Earlier results in patent US8580794B2 (AbbVie Inc., priority 2009, dated 2013).

Test system: RS4;11 cells
Details: Blood, 2008, Vol. 111, 2300-2309; cited from earlier work

## CN(C)CC[C@H](CSc1ccccc1)Nc1ccc(S(=O)(=O)NC(=O)c2ccc(N3CCN(Cc4ccccc4-c4ccc(Cl)cc4)CC3)cc2)cc1[N+](=O)[O-] [ABT-737, N-(4-(4-((4′-chloro(1,1′-biphenyl)-2-yl)methyl)piperazin-1-yl)benzoyl)-4-(((1R)-3-(dimethylamino)-1-((phenylsulfanyl)methyl)propyl)amino)-3-nitrobenzenesulfonamide]
  sensitivity of RS4;11 cells to inhibitor: sensitive
